Experimental data published in patent US20060019907A1, “Guggulsterone: an inhibitor of nuclear factor - kappaB and IkappaBalpha kinase activation and uses thereof” (Research Development Foundation, priority 2004, published 2006).

Assays:
NF-κB [1] = assay: NF-κB activation by EMSA in H1299 cells; assay type: cell-based, human
Description: (§1) NF-κB Activation: To determine NF-κB activation, EMSA was carried out as previously described (Chaturvedi et al., 2000). Briefly, nuclear extracts prepared from cells (2×10^6/ml) treated with TNF were incubated with ^32P-end-labeled 45-mer double-stranded NF-κB oligonucleotide (8 μg of protein with […] of DNA) from the human immunodeficiency virus long terminal repeat, 5′-[…] GGCGTGG-3′ (SEQ ID NO:1) (boldface indicates NF-κB binding sites), for 15 min at 37° C. The DNA-protein complex formed was separated from free oligonucleotide on 6.6% native polyacrylamide gels. A double-stranded mutated oligonucleotide, 5′-[…]-3′ (SEQ ID NO:2), was used to examine the specificity of binding of NF-κB to the DNA. The specificity of binding was also examined by competition with the unlabeled oligonucleotide. For supershift assays, nuclear extracts prepared from TNF-treated cells were incubated with antibodies against either the p50 or the p65 subunit of NF-κB for 30 min at room temperature before the complex was analyzed by EMSA. The dried gels were visualized, and radioactive bands were quantitated using a PHOSPHORIMAGER™ (Molecular Dynamics, Sunnyvale, Calif.) using IMAGEQUANT™ software.

NF-κB [2] = assay: TNF-induced NF-κB activation by EMSA in A549, Jurkat and KBM-5 cells; assay type: cell-based, human; conditions: 50 μM, 4 hours, then 0.1 nM TNF 30 min
Description: as §1

NF-κB [3] = assay: RANKL-induced NF-κB activation by EMSA in RAW 264.7 cells; assay type: cell-based, mouse
U937 cells = assay: Cell cycle, flow cytometric analysis; assay type: cell-based, human; conditions: 10 μM, propidium iodide flow cytometry
Description: Flow cytometric analysis. To determine the effect of guggulsterone on the cell cycle, U937 cells were treated for different times, washed, and fixed with 70% ethanol. After an overnight incubation at −20° C., cells were washed with PBS, and then suspended in staining buffer (Propidium iodide, 10 μg/ml; Tween-20, 0.5%; RNase, 0.1% in PBS). The cells were analyzed using a FACS Vantage flow cytometer that uses CellQuest acquisition and analysis programs (Becton Dickinson, San Jose, Calif.). Gating was set to exclude cell debris, cell doublets, and cell clumps.

[4] = system: caspase 8, cytochrome c, caspase 3, PARP; assay: Caspase activation, cytochrome c release and PARP cleavage, Western blot; assay type: cell-based, human; conditions: U937; 10 μM
Description: Western blot analysis. Thirty to fifty micrograms of cytoplasmic, nuclear or whole cell protein was resolved on 10% SDS-PAGE gel, transferred to a nitrocellulose membrane, blocked with 5% non-fat milk, and probed with specific antibodies as per manufacturer's recommended protocol. The blots were washed, exposed to HRP-conjugated secondary antibodies for 1 h, and detected by ECL reagent (Amersham Pharmacia Biotechnology, Piscataway, N.J.). The bands were quantitated using a Personal Densitometer Scan v1.30 using Imagequant software version 3.3 (Molecular Dynamics).
Measurement of cytochrome c release. To determine the effect of guggulsterone on cytochrome c release, cells were treated with guggulsterone as indicated and then the cytosolic extracts were prepared as described (Yang, 1997). Briefly, the cells were washed with PBS, resuspended in the buffer containing 0.25 M sucrose, 30 mM Tris-HCl (pH 7.9), 1 mM EDTA, 1 mM PMSF, 2 mM sodium orthovanadate, 10 mM NaF, 2 μg/ml leupeptin, and 2 μg/ml aprotinin and then homogenized gently with a glass Dounce homogenizer for 20 strokes. The homogenates were centrifuged at 2000 rpm for 10 min to remove nuclei, and the supernatants were centrifuged at 14,000 rpm for 30 min to remove mitochondria and other insoluble fragments. The supernatants were again centrifuged as above to ensure complete removal of mitochondria. Protein ([…]) was subjected to 15% SDS-PAGE, and then Western blot analysis was performed using anti-cytochrome c antibody.
PARP cleavage assay. For detection of cleavage products of PARP, whole-cell extracts were prepared by subjecting guggulsterone-treated cells to lysis in lysis buffer (20 mM Tris, pH 7.4; 250 mM NaCl; 2 mM EDTA, pH 8.0; 0.1% Triton-X 100; 0.01 μg/ml aprotinin; 0.005 μg/ml leupeptin; 0.4 mM PMSF; and 4 mM NaVO4). Lysates were spun at 14000 rpm for 10 min to remove insoluble material, resolved by 10% SDS PAGE, and probed with PARP antibodies.

JNK [5] = assay: JNK kinase assay; assay type: cell-based, human; conditions: U937; 10 μM
Description: (§2) JNK kinase assay. To determine the effect of guggulsterone on the kinase activity of JNK, JNK complex from whole-cell extracts was precipitated with antibody against JNK1, followed by treatment with protein A/G-Sepharose beads (Pierce, Rockford, Ill.). After 2 h of incubation, the beads were washed with lysis buffer and then assayed in kinase assay mixture containing 50 mM HEPES (pH 7.4), 20 mM MgCl2, 2 mM dithiothreitol, 20 μCi of [γ-^32P]ATP, 10 μM unlabeled ATP, and 2 μg of substrate GST-c-Jun (1-79). The immunocomplex was incubated at 30° C. for 30 min and then boiled with SDS sample buffer for 5 min. Finally, the protein was resolved on 10% SDS-PAGE, the gel was dried, and the radioactive bands were visualized using the PhosphorImager. To determine the total amount of JNK1 in each sample, whole-cell extracts were subjected to Western blot analysis using anti-JNK1 antibody.

JNK [6] = assay: JNK assay in MKK4 mutants and wild type cells; assay type: cell-based; conditions: 10 μM
Description: as §2

[7] = system: MKK4 mutants and wild type cells; assay: Cytotoxicity (MTT uptake) in MKK4 mutants and wild type cells; assay type: cell-based; conditions: 72 h
Description: Cytotoxicity assay. The cytotoxic effects of guggulsterone was determined by the MTT uptake method. Briefly, 5000 cells were incubated with guggulsterone in triplicate in a 96-well plate at 37° C. MTT solution was then added to each well. After a 2-h incubation at 37° C., extraction buffer (20% SDS, 50% dimethylformamide) was added, the cells were incubated overnight at 37° C., and the OD was then measured at 570 nm using a 96-well multiscanner (Dynex Technologies, MRX Revelation, Chantilly, Va.).

[8] = H1299, 4 h pre-incubation, 0.1 nM TNF 30 min

Structure (SMILES): CC=C1C(=O)C[C@H]2[C@@H]3CCC4=CC(=O)CC[C@]4(C)[C@H]3CC[C@]12C [guggulsterone, 4,17(20)-pregnadiene-3,16-dione]
- minimum time required for complete inhibition of NF-κB activation (NF-κB [1]; H1299, 50 μM guggulsterone, 0.1 nM TNF 30 min): 4 h
- TNF-mediated NF-κB activation, dose dependence (NF-κB [1]; [8]): inhibited TNF-mediated NF-κB activation in a dose-dependent manner
- concentration of maximum inhibition of TNF-mediated NF-κB activation (NF-κB [1]; [8]): 50 µM
- NF-κB activation induced by TNF, IL-1β, PMA, H2O2, cigarette smoke and okadaic acid (EMSA) (NF-κB [1]; H1299 cells, 50 μM guggulsterone pre-incubated 4 h): suppressed the NF-κB activation induced by all these agents
- NF-κB activation by guggulsterone by itself (NF-κB [1]; H1299 nuclear extracts, up to 50 μM): by itself did not activate NF-κB
- TNF-induced NF-κB activation in A549, Jurkat and KBM-5 cells (NF-κB [2]): completely inhibited this activation
- concentration of complete inhibition of RANKL-induced NF-κB activation (NF-κB [3]; RAW 264.7, 10 nM RANKL): 50 µM
- inhibition of RANKL-induced NF-κB, dose dependence (NF-κB [3]; RAW 264.7, 10 nM RANKL): increased with dose
- RANKL-induced NF-κB activation (EMSA) (NF-κB [3]; RAW 264.7, 50 μM, 10 nM RANKL): completely abrogated the RANKL-induced NF-κB activation
- RANKL-induced NF-κB activation (Example 1) (NF-κB [3]; osteoclast precursor cells): inhibits RANKL-induced NF-κB activation
- cell cycle arrest (U937 cells): arrested the cell cycle in S-phase
- caspase 3 activation and PARP cleavage [4]: activation of caspase 3 and PARP cleavage
- caspase 8 activation (receptor-mediated apoptosis) [4]: activation of caspase 8
- mitochondrial cytochrome c release (non-receptor mediated apoptosis) [4]: mitochondrial cytochrome c release
- JNK activation (JNK [5]): activation of JNK
- guggulsterone induced JNK activation, dependence on MKK4 (JNK [6]): MKK4 is required for guggulsterone induced JNK activation
- guggulsterone induced cytotoxicity, dependence on MKK4 [7]: MKK4 is required for guggulsterone induced cytotoxicity
